Laboratory results from patent publication US8735414B2 (priority 2009, dated 2014).

How the values were obtained:
[1] = system: bicistronic HCV replicon (replicon RNA, GenBank Accession No. AJ242654); experiment: HCV Replicon Assay; assay type: cell-based; conditions: Hepatitis C virus, 72 h, read-out: Replicon IC50

Row | Structure (SMILES) | IC50 [1] | melting point
1 | Cc1cc2c(cc1F)c(C#N)c(-c1ccc(S(=O)(=O)N[C@@H](C)C(F)(F)F)cn1)n2-c1cnccn1 [compound 817, 6-[3-cyano-5-fluoro-6-methyl-1-(pyrazin-2-yl)-1H-indol-2-yl]-N-[(2S)-1,1,1-trifluoropropan-2-yl]pyridine-3-sulfonamide] | < 500 nM | 220 to 223 °C
2 | N#Cc1c(-c2ccc(S(=O)(=O)NC3(C(F)(F)F)CCC3)cn2)n(C2CCCC2)c2cc(OC(F)F)ccc12 [compound 588, 6-[3-cyano-1-cyclopentyl-6-(difluoromethoxy)-1H-indol-2-yl]-N-[1-(trifluoromethyl)cyclobutyl]pyridine-3-sulfonamide] | < 500 nM | 172 to 176 °C
3 | CC(C)NS(=O)(=O)c1cnc(-c2c(C#N)c3ccc(F)cc3n2C(C)C)nc1 [compound 140, 2-[3-cyano-6-fluoro-1-(propan-2-yl)-1H-indol-2-yl]-N-(propan-2-yl)pyrimidine-5-sulfonamide] | 500 to 2000 nM | 158 to 160 °C
4 | Cc1ccc2c(c1)c(C#N)c(-c1ccc(S(=O)(=O)N[C@H](C)C(F)(F)F)cn1)n2C1CCC1 [compound 484, 6-(3-cyano-1-cyclobutyl-5-methyl-1H-indol-2-yl)-N-[(2R)-1,1,1-trifluoropropan-2-yl]pyridine-3-sulfonamide] | < 500 nM | 134 to 142 °C
5 | Cc1c(OC(F)F)c(F)cc2c(C#N)c(-c3ccc(S(=O)(=O)N[C@@H](C)C(F)(F)F)cn3)n(C3CCC3)c12 [compound 811, 6-[3-cyano-1-cyclobutyl-6-(difluoromethoxy)-5-fluoro-7-methyl-1H-indol-2-yl]-N-[(2S)-1,1,1-trifluoropropan-2-yl]pyridine-3-sulfonamide] | < 500 nM | 168 to 174 °C
6 | C[C@H](NS(=O)(=O)c1cnc(-c2c(C#N)c3ccc(Cl)cc3n2C2CCCC2)nc1)C(F)(F)F [compound 417, 2-(6-chloro-3-cyano-1-cyclopentyl-1H-indol-2-yl)-N-[(2S)-1,1,1-trifluoropropan-2-yl]pyrimidine-5-sulfonamide] | 500 to 2000 nM | 220 to 224 °C
7 | Cc1c(F)cc2c(c1F)c(C#N)c(-c1ccc(S(=O)(=O)NC(CF)CF)cn1)n2C1CCCC1 [compound 558, 6-(3-cyano-1-cyclopentyl-4,6-difluoro-5-methyl-1H-indol-2-yl)-N-(1,3-difluoropropan-2-yl)pyridine-3-sulfonamide] | < 500 nM | 214 to 219 °C
8 | Cc1cc2c(cc1O)c(C(N)=O)c(-c1ccc(S(=O)(=O)N[C@@H](C)C(F)(F)F)cn1)n2C1CCCC1 [compound 841, 1-cyclopentyl-5-hydroxy-6-methyl-2-(5-{[(2S)-1,1,1-trifluoropropan-2-yl]sulfamoyl}pyridin-2-yl)-1H-indole-3-carboxamide] | < 500 nM | 272 to 274 °C
9 | Cc1ccc2c(C#N)c(-c3ccc(S(=O)(=O)NC4(C(F)(F)F)CC4)cn3)n(CC3CC3)c2c1 [compound 255, 6-[3-cyano-1-(cyclopropylmethyl)-6-methyl-1H-indol-2-yl]-N-[1-(trifluoromethyl)cyclopropyl]pyridine-3-sulfonamide] | < 500 nM | 191 to 195 °C
10 | CCc1cc(F)c2c(C(N)=O)c(-c3ccc(NS(=O)(=O)C(C)(C)C)cn3)n(C3CCC3)c2c1 [compound 1110, 2-{5-[(tert-butylsulfonyl)amino]pyridin-2-yl}-1-cyclobutyl-6-ethyl-4-fluoro-1H-indole-3-carboxamide] | < 500 nM | 259 to 263 °C
11 | Cc1ccc2c(c1)c(C#N)c(-c1ccc(S(=O)(=O)NC(C)(C)C(F)(F)F)cn1)n2C1CCCC1 [compound 607, 6-(3-cyano-1-cyclopentyl-5-methyl-1H-indol-2-yl)-N-(1,1,1-trifluoro-2-methylpropan-2-yl)pyridine-3-sulfonamide] | < 500 nM | 176 to 181 °C
12 | Cc1ccc2c(C#N)c(-c3ccc(S(=O)(=O)N[C@@H](C)C(F)(F)F)cn3)n(C3CCC3)c2c1F [compound 421, 6-(3-cyano-1-cyclobutyl-7-fluoro-6-methyl-1H-indol-2-yl)-N-[(2S)-1,1,1-trifluoropropan-2-yl]pyridine-3-sulfonamide] | < 500 nM | 210 to 220 °C
13 | Cc1ccc2c(C#N)c(-c3ncc(S(=O)(=O)N[C@H](C)C(F)(F)F)cn3)n(C3CCC3)c2c1 [compound 181, 2-(3-cyano-1-cyclobutyl-6-methyl-1H-indol-2-yl)-N-[(2R)-1,1,1-trifluoropropan-2-yl]pyrimidine-5-sulfonamide] | < 500 nM | 143 to 145 °C
14 | CC(C)(NS(=O)(=O)c1ccc(-c2c(C(N)=O)c3cc(F)c(OC(F)F)cc3n2C2CCC2)nc1)C(F)(F)F [compound 729, 1-cyclobutyl-6-(difluoromethoxy)-5-fluoro-2-{5-[(1,1,1-trifluoro-2-methylpropan-2-yl)sulfamoyl]pyridin-2-yl}-1H-indole-3-carboxamide] | < 500 nM | 207 to 209 °C
15 | C[C@H](NS(=O)(=O)c1ccc(-c2c(C#N)c3ccc(F)cc3n2C2CCCC2)nc1)C(F)(F)F [compound 396, 6-(3-cyano-1-cyclopentyl-6-fluoro-1H-indol-2-yl)-N-[(2S)-1,1,1-trifluoropropan-2-yl]pyridine-3-sulfonamide] | < 500 nM | 132 to 133 °C
16 | Cc1cc2c(cc1F)c(C#N)c(-c1ccc(S(=O)(=O)N[C@@H](C)C(F)(F)F)cn1)n2-c1cncs1 [compound 973, 6-[3-cyano-5-fluoro-6-methyl-1-(1,3-thiazol-5-yl)-1H-indol-2-yl]-N-[(2S)-1,1,1-trifluoropropan-2-yl]pyridine-3-sulfonamide] | < 500 nM | 234 to 238 °C
17 | Cc1ccc2c(C#N)c(-c3ccc(S(=O)(=O)N[C@@H](C)C(F)(F)F)cn3)n(C3CCCC3)c2c1F [compound 424, 6-(3-cyano-1-cyclopentyl-7-fluoro-6-methyl-1H-indol-2-yl)-N-[(2S)-1,1,1-trifluoropropan-2-yl]pyridine-3-sulfonamide] | < 500 nM | 191 to 195 °C
18 | Cc1cc2c(cc1F)c(C#N)c(-c1ncc(S(=O)(=O)N[C@@H](C)C(F)(F)F)cc1C)n2C1CCCC1 [compound 837, 6-(3-cyano-1-cyclopentyl-5-fluoro-6-methyl-1H-indol-2-yl)-5-methyl-N-[(2S)-1,1,1-trifluoropropan-2-yl]pyridine-3-sulfonamide] | < 500 nM | 237 to 242 °C
19 | Cc1c(F)cc2c(C#N)c(-c3ccc(S(=O)(=O)NC(CF)CF)cn3)n(C3CCCC3)c2c1F [compound 509, 6-(3-cyano-1-cyclopentyl-5,7-difluoro-6-methyl-1H-indol-2-yl)-N-(1,3-difluoropropan-2-yl)pyridine-3-sulfonamide] | < 500 nM | 199 to 203 °C
20 | CC(C)NS(=O)(=O)c1ccc(-c2c(C#N)c3cc(F)ccc3n2-c2ccccn2)nc1 [compound 439, 6-[3-cyano-5-fluoro-1-(pyridin-2-yl)-1H-indol-2-yl]-N-(propan-2-yl)pyridine-3-sulfonamide] | < 500 nM | 208 to 210 °C
21 | CC(C)c1ccc2c(C#N)c(-c3ccc(S(=O)(=O)NC(CF)CF)cn3)n(C3CCC3)c2c1 [compound 43, 6-[3-cyano-1-cyclobutyl-6-(propan-2-yl)-1H-indol-2-yl]-N-(1,3-difluoropropan-2-yl)pyridine-3-sulfonamide] | < 500 nM | 135 to 140 °C
22 | CC(C)(C)S(=O)(=O)Nc1ccc(-c2c(C(N)=O)c3cc(F)c(OC(F)F)cc3n2C2CCCCC2)cn1 [compound 1063, 2-{6-[(tert-butylsulfonyl)amino]pyridin-3-yl}-1-cyclohexyl-6-(difluoromethoxy)-5-fluoro-1H-indole-3-carboxamide] | < 500 nM | 296 to 297 °C
23 | CCc1cc(F)c2c(C(N)=O)c(-c3ccc(NS(=O)(=O)C(C)(C)C)nc3)n(-c3ccccc3)c2c1 [compound 1111, 2-{6-[(tert-butylsulfonyl)amino]pyridin-3-yl}-6-ethyl-4-fluoro-1-phenyl-1H-indole-3-carboxamide] | < 500 nM | 288 to 294 °C
24 | Cc1cc2c(cc1F)c(C#N)c(-c1ccc(S(=O)(=O)NC3(C)CC3)cn1)n2C1CCCC1 [compound 645, 6-(3-cyano-1-cyclopentyl-5-fluoro-6-methyl-1H-indol-2-yl)-N-(1-methylcyclopropyl)pyridine-3-sulfonamide] | < 500 nM | 208 to 209 °C
25 | C[C@H](NS(=O)(=O)c1cnc(-c2c(C#N)c3ccc(OC(F)F)cc3n2C2CCC2)nc1)C1CC1 [compound 130, 2-[3-cyano-1-cyclobutyl-6-(difluoromethoxy)-1H-indol-2-yl]-N-[(1S)-1-cyclopropylethyl]pyrimidine-5-sulfonamide] | < 500 nM | 172 to 174 °C
26 | CSc1ccc2c(C#N)c(-c3ncc(S(=O)(=O)NC(CF)CF)cn3)n(C3CCC3)c2c1 [compound 162, 2-[3-cyano-1-cyclobutyl-6-(methylsulfanyl)-1H-indol-2-yl]-N-(1,3-difluoropropan-2-yl)pyrimidine-5-sulfonamide] | < 500 nM | 199 to 201 °C
27 | CC(C)(C)NS(=O)(=O)c1ccc(-c2c(C#N)c3ccc(OC(F)(F)F)cc3n2C2CCCC2)nc1 [compound 18, N-tert-butyl-6-[3-cyano-1-cyclopentyl-6-(trifluoromethoxy)-1H-indol-2-yl]pyridine-3-sulfonamide] | 500 to 2000 nM | 182 to 184 °C
28 | N#Cc1c(-c2ccc(S(=O)(=O)NC(CF)CF)cn2)n(C2CCC2)c2cc(F)ccc12 [compound 56, 6-(3-cyano-1-cyclobutyl-6-fluoro-1H-indol-2-yl)-N-(1,3-difluoropropan-2-yl)pyridine-3-sulfonamide] | < 500 nM | 206 to 208 °C
